Legend:
Format in all cases: in vivo
Laodelphax striatellus = assay: whole plant or invertebrate; conditions: 192 h, rice seedlings dipped 30 seconds, 3rd-instar larvae, 8 days after inoculation, criteria of Test Example 1, read-out: insecticidal efficacy (corrected mortality rate)
Ctenocephalides felis = assay: whole plant or invertebrate; conditions: 50 ppm in bovine blood, oral via feeder, adults, following day, read-out: mortality rate
Haemonchus contortus = assay: Larval motility assay on Haemonchus contortus; conditions: 96 h, L1 stage larvae, 4 days, relative to DMSO only, read-out: percent motility inhibition
Protocol: Larval Motility Assay on Haemonchus contortus
DMSO diluted solutions of various compounds of the present invention were added at the final concentration of 50 ppm to the wells of a 96-well plate containing a predetermined conditioned medium. Twenty L1 stage larvae of H. contortus were introduced into each well of the 96-well plate. The plate was allowed to stand for 4 days, and then larval motility was examined. The percent motility inhibition in the wells of each treatment was calculated relative to the wells of treatment with DMSO only.

Dirofilaria immitis = assay: Larval motility assay on Dirofilaria immitis; conditions: 72 h, L1 stage larvae, 3 days, relative to DMSO only, read-out: percent motility inhibition
Protocol: Larval Motility Assay on Dirofilaria immitis
Five hundred L1 stage larvae of D. immitis were diluted in a predetermined conditioned medium and introduced into each well of a 96-well plate. DMSO diluted solutions of various compounds of the present invention were added at the final concentration of 50 ppm to the wells of the 96-well plate. The plate was allowed to stand for 3 days, and then larval motility was examined. The percent motility inhibition in the wells of each treatment was calculated relative to the wells of treatment with DMSO only.

Plutella xylostella = assay: whole plant or invertebrate; conditions: 144 h, Chinese cabbage seedlings with laid eggs dipped about 30 seconds, 6 days after dip treatment, criteria of Test Example 1, read-out: insecticidal efficacy (corrected mortality rate)
Rhipicephalus sanguineus = assay: Assay for transdermal parasiticidal activity against nymphs of Rhipicephalus sanguineus; conditions: 100 ppm applied to inside of sample bottles, two days later
Description: DMSO diluted solutions of various compounds of the present invention were individually diluted to the final concentration of 100 ppm with an acetone/triton mixture and applied to the inside of vented sample bottles. After overnight drying, ten nymphs of R. sanguineus were introduced into each bottle, and the mortality rate was examined two days later. Aberrant adults were regarded as the dead.

SMILES	mortality at 500 ppm (Laodelphax striatellus) [%]	mortality at 50 ppm (Ctenocephalides felis) [%]	inhibition at 50 ppm (Haemonchus contortus) [%]	inhibition at 50 ppm (Dirofilaria immitis) [%]	mortality at 500 ppm (Plutella xylostella) [%]	parasiticidal activity (mortality rate) (Rhipicephalus sanguineus)
CCS(=O)(=O)c1cc(-c2noc(C3(C)CC3)n2)cnc1-c1nc2cc(C(F)(F)F)cnc2n1C [Compound 1-2]	100	≥ 50	≥ 50	≥ 50	100	
CCS(=O)(=O)c1cc(-c2noc(C3(C(F)(F)F)CC3)n2)cnc1-c1nc2cc(C(F)(F)F)cnc2n1C [Compound 1-4, 3-(5-ethylsulfonyl-6-(3-methyl-6-trifluoromethyl-3H-imidazo [4,5-b]pyridin-2-yl)pyridin-3-yl)-5-(1-trifluoromethylcyclopropyl)-1,2,4-oxadiazole]	100	≥ 50	≥ 50	≥ 50	100	parasiticidal activity
CCS(=O)(=O)c1cc(-c2noc(C3(c4ccccc4)CC3)n2)cnc1-c1nc2cc(C(F)(F)F)cnc2n1C [Compound 1-5]	100		≥ 50	≥ 50	100	parasiticidal activity
CCS(=O)(=O)c1cc(-c2noc(C3CC3C)n2)cnc1-c1nc2cc(C(F)(F)F)cnc2n1C (stereo not drawn) [Compound 1-6, 3-(5-ethylsulfonyl-6-(3-methyl-6-trifluoromethyl-3H-imidazo[4,5-b]pyridin-2-yl)pyridin-3-yl)-5-(2-methylcyclopropyl)-1,2,4-oxadiazole]	100		≥ 50	≥ 50	100	
CCS(=O)(=O)c1cc(-c2noc(C3(C(F)(F)F)CC3)n2)cnc1-c1nc2cc(C(F)(F)F)ncc2n1C [Compound 1-7]	100	≥ 50	≥ 50	≥ 50	100	
CCS(=O)(=O)c1cc(-c2noc(C3(C(F)(F)F)CC3)n2)cnc1-c1nc2cc([S+]([O-])C(F)(F)F)ccc2n1C (stereo not drawn) [Compound 1-8]	100				100	

From US12484581B2, “Agricultural or horticultural insecticide or animal ectoparasite or endoparasite control agent each comprising a condensed heterocyclic compound having a substituted cyclopropane-oxadiazole group or a salt thereof as active ingredient, and method for using the insecticide or the control agent” (NIHON NOHYAKU CO., LTD., priority 2019, dated 2025)
